GHS category data for 100 compounds are collected here from the CATMoS acute toxicity set (Mansouri et al. 2021).

This data set in a line: GHS categories as the set defines them, by LD50: 1 up to 5, 2 up to 50, 3 up to 300, 4 up to 2000, 5 above 2000 mg/kg. The settings on record: rat; in vivo; po.

As for `CC(=O)OC[C@H]1O[C@@](COC(C)=O)(O[C@H]2O[C@H](COC(C)=O)[C@@H](OC(C)=O)[C@H](OC(C)=O)[C@H]2OC(C)=O)[C@@H](OC(C)=O)[C@@H]1OC(C)=O`, the GHS category is listed as 5. Turning to `CC/C(=C(/CC)c1ccc(O)cc1)c1ccc(O)cc1`, the GHS category is recorded as 5. The compound `CC[C@H]1CO[C@@](Cn2cncn2)(c2cc3cc(Cl)ccc3o2)O1` showed a GHS category of 4. Consider `Cn1c(=O)oc2cc(C(=O)c3ccc(Cl)cc3)ccc21`, for which the GHS category stood at 5.

`C=CC(C)(O)CCC=C(C)CCC=C(C)C` (stereo not given) returned a GHS category of 5. On to `C=CC(=O)OCC(CC)(COCC(CC)(COC(=O)C=C)COC(=O)C=C)COC(=O)C=C`, for which the GHS category amounted to 5. For `NC1=NC(=O)CC(=O)N1` the value was 5; for `CCCCCCC(COC(=O)c1cccnc1)(COC(=O)c1cccnc1)COC(=O)c1cccnc1`, 5; for `O=C1c2ccccc2C(=O)c2ccccc21`, 5.

With `CC(=O)O[C@@H]1C[C@H](C)CC[C@H]1C(C)C`, the GHS category was found to be 5. `C[S+](C)CC[C@@H](N)C(=O)O` (racemic) displayed a GHS category of 5. On to `O=C1C=CC(=O)N1c1ccc(Cc2ccc(N3C(=O)C=CC3=O)cc2)cc1`, for which the GHS category is reported as 5. Compound `O=C1c2ccccc2CN2C(=O)c3ccccc3CN12` displayed a GHS category of 5.

Consider `CCCCCCCC/C=C\CCCCCCCC(=O)OCC`, for which the GHS category amounted to 5. As for `CCOC(=O)C1=C(C)C=CCC1(C)C`, the GHS category is reported as 5. As for `COc1ccc(CC(C)NCC(O)c2ccc(O)c(CO)c2)cc1` (stereo not given), the figure is 4; as for `OC1C(Cl)(Cl)C(=C(Cl)Cl)C(O)(C(Cl)Cl)C1(Cl)Cl` (stereo not given), 4.

For `O=C(O)c1ccccc1C(=O)O`, the GHS category stood at 5. Take `C=CCCCCCCCCCO`: the GHS category is given as 5. For `CC(C)(Oc1ccc(Cl)cc1)C(=O)OC(COC(=O)c1cccnc1)COC(=O)c1cccnc1` the value was 5; for `CC(C)(CO)C1OCC2(CO1)COC(C(C)(C)CO)OC2` (stereo not given), 5. `O=c1[nH]c2ccc([N+](=O)[O-])cc2[nH]1` displayed a GHS category of 5. For `O=C(NCC(O)CCl)c1ccc([N+](=O)[O-])cc1` (stereo not given) the value was 3; for `CCOC(=O)COc1cc(-c2nn(C)c(OC(F)F)c2Cl)c(F)cc1Cl`, 5; for `CCO[Si](CCCNC=O)(OCC)OCC`, 5. The compound `CC(=O)Nc1c(I)c(C(=O)N[C@H]2C(O)O[C@H](CO)[C@@H](O)[C@@H]2O)c(I)c(N(C)C(C)=O)c1I` (stereo not given in full) showed a GHS category of 5.

In turn, `Nc1c(I)c(C(=O)O)c(I)c(C(=O)NCC(O)CO)c1I` (stereo not given) showed a GHS category of 5. For the compound `CC12CCC3c4ccc(OC(=O)c5ccccc5)cc4CCC3C1CCC2OC(=O)COC(=O)CCCc1ccc(NCCCl)cc1` (stereo not given), the GHS category came to 5. On to `CC(C)CCCCCCCCCCCCCCC(=O)O`, for which the GHS category is recorded as 5. With `OCC1CN2CCN1CC2` (stereo not given), the GHS category is on record as 5. In the case of `NC(=O)O`, the GHS category is recorded as 4. With `CCN(CC)CCc1nc(-c2ccccc2)no1`, the GHS category came out at 5. `CCOC(=O)[C@H](CCc1ccccc1)N[C@@H](C)C(=O)N1[C@H](C(=O)O)C[C@H]2CCCC[C@@H]21` returned a GHS category of 5.

With `Cc1cc(C)c(S(=O)(=O)O)cc1N=Nc1cc(S(=O)(=O)O)c2ccccc2c1O`, the GHS category came out at 5.

The compound `N#CC1(N)CC1` showed a GHS category of 4.

`CCCCCCCCC=CCCCCCCCCCCCC(=O)NCCCN(C)C` had a GHS category of 5.

In the case of `NS(=O)(=O)c1cc2c(cc1Cl)N=C(CSCc1ccccc1)NS2(=O)=O`, the GHS category worked out at 5. Turning to `CC1=C(CCC(=O)O)c2cc3[nH]c(cc4nc(cc5[nH]c(cc1n2)c(C)c5C(C)O)C(C)=C4C(C)O)c(C)c3CCC(=O)O` (stereo not given), the GHS category was 5. Turning to `O=C1OC(=O)c2c(Cl)c(Cl)c(Cl)c(Cl)c21`, the GHS category stood at 5. `CC(C)COC(=O)Nc1nc(N2CC=CCC2)cc2nc(=O)on12` had a GHS category of 5. Take `Cc1nc(N2CCOCC2)sc1C(=O)Nc1ccccc1`: the GHS category is recorded as 4.

Regarding `CNC(=O)C(=NNc1cccc(C)c1)C(C)=O`, the GHS category worked out at 5.

Regarding `CCCCC(CC)COC(=O)c1ccc([N+](=O)[O-])cc1` (stereo not given), the GHS category stood at 5. Consider `CCOP(=S)(OCC)N(SN(C)C(=O)ON=C(C)SC)C1CCCCC1`, for which the GHS category is 3.

Regarding `O=[N+]([O-])c1ccc2c(c1)COP(=S)(N1CCCC1)O2` (stereo not given), the GHS category worked out at 3.

In turn, `Nc1ccc(F)cc1-c1ccc(Cl)c(Cl)c1` registered a GHS category of 5. `CO/N=C(/C(=O)N[C@@H]1C(=O)N2C(C(=O)OCOC(=O)C(C)(C)C)=C(C)CS[C@H]12)c1csc(N)n1`: the GHS category is 5. `CCCCCCCNC(=O)c1cnc2cccc(C)n2c1=O` yielded a GHS category of 3. Compound `CCC[C@H]1CCO[C@@H](C)S1` displayed a GHS category of 5. `CCCCCC=CCC=CCC=CCC=CCCCC(=O)OCC`: the GHS category worked out at 5.

In turn, `CN1CCN(C2=NS(=O)(=O)c3cc(Cl)ccc3N2)CC1` gave a GHS category of 5. As for `CCCc1nc2c(C)cc(-c3nc4ccccc4n3C)cc2n1Cc1ccc(-c2ccccc2C#N)cc1`, the figure is 5; as for `O=[N+]([O-])c1ccc(OCC2CO2)cc1` (stereo not given), 5; as for `NS(=O)(=O)C(F)(F)C(F)(F)C(F)(F)C(F)(F)C(F)(F)C(F)(F)C(F)(F)C(F)(F)F`, 3. As for `COC1=C(C(=O)O)N2C(=O)[C@@H](NC(=O)[C@H](N)C3=CCC=CC3)[C@H]2SC1`, the GHS category is given as 5. For the compound `CCC1COC(Cn2ccnc2)(c2cc3cc(Cl)cc(Cl)c3o2)O1` (stereo not given), the GHS category is 4. With `C=C(C)C(=O)OCCOC(=O)c1ccc2c(c1)C(=O)OC2=O`, the GHS category was 5. `CN[C@@H]1[C@H](O[C@H]2[C@H](O[C@@H]3[C@H](O)[C@@H](O)[C@@H](OC(N)=O)[C@@H](O)[C@@H]3NC(=N)N)O[C@@H](C)[C@]2(O)CO)O[C@@H](CO)[C@H](O)[C@H]1O` displayed a GHS category of 5.

For the compound `CCCCCCCC/C=C\CCCCCCCCCCCCC`, the GHS category was 5.

`CCCBr` returned a GHS category of 5. The compound `CCCc1nc2ccnn2c(NCCN2CCCC2)c1Cc1ccc(-c2ccccc2-c2nn[nH]n2)cc1` showed a GHS category of 4.

As for `CC(C#N)c1cccc(C(=O)Cl)c1` (stereo not given), the GHS category amounted to 5. As for `COCC(=O)N(c1c(C)cccc1C)[C@H](C)C(=O)OC`, the GHS category was found to be 4.

`COC[C@@H]1CO[C@@](Cn2ccnc2)(c2cc3cc(Cl)cc(Cl)c3o2)O1` showed a GHS category of 4.

As for `CS(=O)(=O)c1ccc(C(=O)C2C(=O)CCCC2=O)c(Cl)c1`, the GHS category was found to be 5. The compound `CNc1ccc(C(=O)c2ccccc2)cc1O` came in with a GHS category of 5. `CCOC(=O)C(=O)Nc1cc(SCCOC(=O)C(=O)OCC)nc(C)n1` showed a GHS category of 4. Turning to `Cc1cc(C)c(C(=O)P(=O)(c2ccccc2)c2ccccc2)c(C)c1`, the GHS category is 5. For `CCOCC=C(C)CCC=C(C)C` the value was 5; for `CC1CC(C)C(C)C(C)C1` (stereo not given), 5.

In turn, `COc1ccc(C2NC(=O)CCS2)cc1` (stereo not given) returned a GHS category of 5. `COC[C@H]1CO[C@@](Cn2ccnc2)(c2cc3ccccc3o2)O1`: the GHS category is 4. Compound `CCOc1ccc(NC(=O)c2cc3ccccc3cc2O)cc1` returned a GHS category of 5. Regarding `Cc1c(C)c2c(c(C)c1OC(=O)C(C)(C)Oc1ccc(Cl)cc1)CC[C@@](C)(CCC[C@H](C)CCC[C@H](C)CCCC(C)C)O2`, the GHS category is given as 5. As for `O=C(c1ccc(Cl)cc1)n1ccnc1-c1ccccc1`, the figure is 4; as for `c1ccc(COc2ccc3ccccc3c2)cc1`, 5; as for `CO[Si](OC)(C1CCCC1)C1CCCC1`, 5. On to `CCCC=CCC1CCCC1=O` (stereo not given), for which the GHS category amounted to 5. `CC(C)=CCC(C#N)(CCN1CCCC1)c1cccc2ccccc12` (stereo not given) returned a GHS category of 4. For the compound `COc1ccc(C=Nc2ccccc2C(=O)O)cc1`, the GHS category is recorded as 4.

`Cc1c(C)c2c(c(C)c1OC(=O)c1cccnc1)CC[C@@](C)(CCC[C@H](C)CCC[C@H](C)CCCC(C)C)O2` (racemic) had a GHS category of 5.

`OCCCCSc1ccc(Cl)cc1` had a GHS category of 4. In turn, `CC(CCO)CCCC(C)(C)O` (stereo not given) came in with a GHS category of 5. For the compound `CCSc1nc(N)c2c(C)coc2n1`, the GHS category was 5.

`CN1C(=O)C(O)N=C(c2ccccc2Cl)c2cc(Cl)ccc21` (stereo not given) came in with a GHS category of 5. In the case of `Cc1onc(-c2ccccc2)c1C(=O)N[C@@H]1C(=O)N2[C@@H]1SC(C)(C)[C@@H]2C(=O)O`, the GHS category is 5.

In turn, `CC(C)CCC[C@@H](C)[C@H]1CC[C@H]2[C@@H]3CC[C@H]4C[C@H](O)CC[C@]4(C)[C@H]3CC[C@]12C` displayed a GHS category of 4. Regarding `COc1ccc2cc([C@H](C)C(=O)OCCN3CCN(CCOC(=O)[C@@H](C)c4ccc5cc(OC)ccc5c4)CC3)ccc2c1`, the GHS category is recorded as 5. In turn, `CO/C=C(/C(=O)OC)c1ccccc1Oc1cc(Oc2ccccc2C#N)ncn1` gave a GHS category of 5. The compound `CCOc1nn(-c2cccc(C(F)(F)F)c2)c2ncccc12` showed a GHS category of 4. As for `Oc1ccc(C(O)CN2CCN(C(c3ccccc3)c3ccccc3)CC2)cc1` (stereo not given), the figure is 5; as for `CCCC(=O)OC`, 5. As for `CC(=O)Nc1ncc([N+](=O)[O-])s1`, the GHS category came to 4. As for `CCCCC(CC)C(c1ccc(O)cc1)c1ccc(O)cc1` (stereo not given), the figure is 4; as for `CC1CC(OC(=O)C(C)(C)Oc2cccc(C(F)(F)F)c2)CC(C)(C)C1` (stereo not given), 5; as for `Cn1cc(C(=O)O)c(C(F)F)n1`, 5. `CCCCOC(=O)C(=O)Nc1cccc(-c2nnn[nH]2)c1` showed a GHS category of 5.

The compound `CCCCCCCCCCCc1ccccc1` showed a GHS category of 5. `NC(=O)CCNCCO` registered a GHS category of 5. `N[C@@H](Cc1c[nH]c2ccccc12)C(=O)O` came in with a GHS category of 5.
